Experimental findings from patent US20080312309A1, “CONTROLLED RELEASE ORAL FORMULATIONS OF ION CHANNEL MODULATING COMPOUNDS AND RELATED METHODS FOR PREVENTING ARRHYTHMIA” (priority 2007, published 2008) are described below.

Marks after values point to notes of the source that are not given here.

This series is described as follows: Disposition and mass balance of 14C-vernakalant hydrochloride after single IV and oral doses in CYP2D6 EMs and PMs. Type of series: in vivo, human. Particulars: for AUC0-∞ / Cmax / Tmax / t1/2: plasma, single 240-mg dose. The text has this: This phase 1 study used an open-label, single-sequence, crossover design. […] The specific activity of the administered dose was 0.329 μCi/mg, yielding a total radioactive dose of 78.96 μCi. Participants remained confined to the center for 7 days after drug administration to ensure collection of urine and fecal samples for recovery of radioactivity. After an additional 2-week follow-up as outpatients, the cohort returned to the center 3 weeks after each dose (i.e., days 21 and 42) for end-of-study assessments.
Additional samples were obtained 5 minutes into the IV infusion and at its end.
Urine and fecal specimens were also collected at the end-of-study assessment. Saliva for ^14C analysis was obtained before dosing, 0.25, 0.5, 2, and 8 hours afterward, and on occurrence of any treatment-related adverse event related to dysgeusia. Vomitus for ^14C analysis was collected at any time over the 7 days after oral administration when vomiting occurred.
Adverse events were evaluated daily, classified by intensity and association with treatment, and coded according to the MedDRA dictionary version 6.1. Vital signs, physical examination, 12-lead electrocardiograph (ECG), and laboratory tests including clinical chemistry, hematology, and urinalysis were evaluated at screening, 7 days after dosing, and at the end-of-study assessment. […] In addition, vital signs and 12-lead ECG were obtained 15 minutes before dosing; the vital signs assessment was repeated 15, 30, 60, and 90 minutes after dosing and then daily for 7 days.
Plasma samples first underwent solid-phase extraction on SPE cartridges containing a 30-mg MCX phase (Waters, Milford, Mass.); urine samples were analyzed directly. For the determination of glucuronide and sulphate conjugates, plasma and urine samples underwent an enzymatic deconjugation with a solution of β-glucuronidase (5000 units/mL in 0.1 M sodium acetate buffer pH 5.0) and were incubated for 30 hours (plasma) or 20 hours (urine) at 37° C. Subsequently, the urine samples were injected directly on to the column and the plasma samples were further treated with SPE as described above. […] The other part of the LC column effluent was directed to model API 3000 MS (MDX Sciex, Concord, Canada) with ionspray detection for structural confirmation and identification.
Pharmacokinetic values were analyzed using noncompartmental analysis by means of WinNonlin version 5.0 (Pharsight Corp, Mountain View, Calif.). […] Oral bioavailability (F) was determined from the ratio of AUC0-∞ after oral dosing to AUC0-∞ after IV dosing, and was used to calculate the oral clearance (CL/F), Vdz after oral dosing (Vdz/F), and Vss after oral dosing (Vss/F).
The amount of these analytes excreted in urine was calculated according to time period and cumulatively over the 7 days. Total ^14C in urine and feces (and vomitus, if applicable) was also determined by time and cumulatively over the study for the mass-balance estimation.
Concentrations below the lower limit of quantitation were set to 0. […] Safety parameters were summarized descriptively for the entire cohort.

Where [1] appears, read: IV infusion of 14C-vernakalant, EMs (n = 5).
The mark [2] stands for this setting: IV infusion of 14C-vernakalant, PMs (n = 2).
Where [3] appears, read: oral administration of 14C-vernakalant, EMs (n = 5).
Where [4] appears, read: oral administration of 14C-vernakalant, PMs (n = 2).
Setting [5] is: IV infusion, EMs (n = 5), listed as Compound 2G.
Where [6] appears, read: oral administration, EMs (n = 5).
Setting [7] is: oral administration, PMs (n = 2).

Consider `COc1cc(CCO[C@@H]2CCCC[C@H]2N2CC[C@@H](O)C2)ccc1OC1OC(C(=O)O)C(O)C(O)C1O` (stereo partly drawn) [Compound 2 glucuronide], for which the “Cumulative Amount Excreted in Urine During the 7 Days After Administration” value (shortened to “Cumulative Amount Excreted”) runs as follows: under setting [1], 120.01 ± 19.03 mg; under setting [2], 11.36 ± 5.52 mg; under setting [3], 121.76 ± 44.38 mg; under setting [4], 12.03 ± 0.51 mg. For the same molecule, the “mean AUC0-∞, times higher in EMs than in PMs” value (plasma metabolite) was determined as 10 times. In addition, the “AUC0-∞” value by setting is: (IV infusion, EMs (n = 5)) 20,711 ± 2708 ng · h/mL; (IV infusion, PMs (n = 2)) 1933 ± 360.0 ng·h/mL; under setting [6], 21,182 ± 3137 ng · h/mL; under setting [7], 2025 ± 65.9 ng·h/mL. For the same molecule, the maximum concentration (Cmax) is, setting by setting: (IV infusion, EMs (n = 5)) 3489 ± 371.4 ng/mL; (IV infusion, PMs (n = 2)) 180.5 ± 48.8 ng/mL; under setting [6], 3824 ± 349.3 ng/mL; under setting [7], 230.5 ± 4.99 ng/mL. The Tmax (IV infusion, EMs (n = 5)) is given as 1.44 ± 0.69 h; the time of peak concentration (Tmax) under setting [5] came out at 1.4 h; the Tmax (IV infusion, PMs (n = 2)) amounted to 2.17 ± 0.0 h; the Tmax under setting [6] worked out at 2.4 h; the Tmax under setting [7] is given as 2.00 ± 0.0 h. Besides, the t1/2 is on record as 3.29 ± 0.21 h (IV infusion, EMs (n = 5)); 3.3 h under setting [5]; 5.59 ± 0.73 h (IV infusion, PMs (n = 2)); 3.2 h under setting [6]; 5.01 ± 0.49 h under setting [7].

Take `COc1cc(CCO[C@@H]2CCCC[C@H]2N2CC[C@@H](O)C2)ccc1O` [Compound 2]: the “Cumulative Amount Excreted” value reads like this: under setting [1], 3.11 ± 0.85 mg; under setting [2], 0.48 ± 0.02 mg; under setting [3], 3.88 ± 1.14 mg; under setting [4], 0.62 ± 0.19 mg. Further, the “AUC0-∞” value runs as follows: (IV infusion, EMs (n = 5)) 202.5 ± 66.6 ng·h/mL; under setting [6], 225.2 ± 76.8 ng·h/mL. For the same molecule, the Cmax reads like this: (IV infusion, EMs (n = 5)) 68.6 ± 18.0 ng/mL; (IV infusion, PMs (n = 2)) 3.31 ± 4.67 ng/mL; under setting [6], 63.2 ± 21.9 ng/mL; under setting [7], 6.25 ± 8.84 ng/mL. The t1/2 by setting is: (IV infusion, EMs (n = 5)) 2.28 ± 0.29 h; under setting [6], 2.19 ± 0.29 h.

As for `COc1ccc(CCO[C@@H]2CCCC[C@H]2N2CC[C@@H](O)C2)cc1O` [Compound 3], the “Cumulative Amount Excreted” value is, setting by setting: under setting [1], 0.04 ± 0.02 mg; under setting [2], 0.16 ± 0.12 mg; under setting [3], 0.05 ± 0.03 mg; under setting [4], 0.12 ± 0.05 mg. The detectability in plasma entry (after vernakalant hydrochloride dosing) was “not detectable in plasma at most time points”. The Cmax is, setting by setting: (IV infusion, EMs (n = 5)) 2.85 ± 3.94 ng/mL; (IV infusion, PMs (n = 2)) 3.72 ± 5.26 ng/mL; under setting [6], 1.41 ± 3.16 ng/mL; under setting [7], 9.08 ± 2.16 ng/mL. The Tmax (IV infusion, EMs (n = 5)) came out at 0.34 ± 0.12 h; the Tmax (IV infusion, PMs (n = 2)) was 0.42^† h; the Tmax under setting [6] is given as 0.77^† h; the Tmax under setting [7] is listed as 1.25 ± 1.06 h.

For the molecule `COc1ccc(CCO[C@@H]2CCCC[C@H]2N2CC[C@@H](O[C@@H]3O[C@H](C(=O)O)[C@@H](O)[C@H](O)[C@H]3O)C2)cc1OC` [Vernakalant glucuronide], the “Cumulative Amount Excreted” value runs as follows: under setting [1], 8.91 ± 2.86 mg; under setting [2], 44.22 ± 15.10 mg; under setting [3], 11.31 ± 6.48 mg; under setting [4], 50.20 ± 14.99 mg. Moreover, for the setting “plasma metabolite”, the “AUC0-∞, times higher in PMs than EMs” value is “approximately 4 times”. The “AUC0-∞” value by setting is: (IV infusion, EMs (n = 5)) 1791 ± 764.1 ng·h/mL; (IV infusion, PMs (n = 2)) 8074 ± 118.6 ng·h/mL; under setting [6], 2076 ± 809.3 ng·h/mL; under setting [7], 7759 ± 1252 ng·h/mL. In addition, the Cmax is listed as 455.6 ± 118.9 ng/mL (IV infusion, EMs (n = 5)); 942.0 ± 213.5 ng/mL (IV infusion, PMs (n = 2)); 496.0 ± 158.5 ng/mL under setting [6]; 1078 ± 297.7 ng/mL under setting [7]. Also, the Tmax is listed as 0.48 ± 0.13 h (IV infusion, EMs (n = 5)); 1.67 ± 0.71 h (IV infusion, PMs (n = 2)); 1.80 ± 0.45 h under setting [6]; 1.38 ± 0.88 h under setting [7]. The t1/2 runs as follows: (IV infusion, EMs (n = 5)) 2.76 ± 0.65 h; (IV infusion, PMs (n = 2)) 6.58 ± 2.59 h; under setting [6], 2.57 ± 0.41 h; under setting [7], 4.32 ± 0.27 h.

As a reminder, the Cmax is the peak of the concentration-time curve. Broadly, the Tmax is the time from dosing to the highest level.
